# Test results as given in patent US20080206316A1, “Chromium-Fatty Acid Compounds and Methods of Making and Using Thereof” (priority 2005, published 2008).
# System: diabetic mice
# Test: Fasting blood glucose in diabetic mice fed test diets
# Type: in vivo, Mice (C57BL/6J)
# Procedure: Mice (C57BL/6J) weighing 20-grams were fed a high fat, high sucrose diet with no added chromium (No. D01030101, Research Diets Inc., New Brunswick, N.J.). After two weeks, they were injected intraperitoneally (i.p.) with streptozotocin (in phosphate-buffered saline, PBS) at a dose of 35 mg/kg body weight on 3 consecutive days. The combination of the high fat/high sucrose diet and streptozotocin treatment produced an impaired glucose tolerance evident 7 days following the initial streptozotocin injection (FIG. 5). Glucose tolerance was measured in mice fasted overnight and then injected i.p. with 1 g glucose/kg body weight (0.25 mL of a 10% glucose solution in PBS). Blood glucose was measured using a glucometer (OneTouch Ultra, LifeScan Inc., Milpitas, Calif.) on a drop of blood obtained from the saphenous vein just prior to (0 time) and at 10, 30, 60, 90 and 120 minutes following injection.
# Animals were subsequently assigned to one of four different diet treatments, six animals per group. The diets were modified from the above high fat, high sucrose diet (Table 6). Each diet contained 1.5% fish oil concentrate (40:20 EPA/DHA ethyl ester, Ocean Nutrition Canada, Ltd., Mulgrave, NS). […] The animals were fed these diets for 4 weeks, after which time, fasting blood glucose and glucose tolerance was evaluated. […]
structure (smiles),measurement,setting,value
O=C([O-])c1ccccn1.O=C([O-])c1ccccn1.O=C([O-])c1ccccn1.[Cr+3] [Cr picolinate],Fast blood glucose levels,"diabetic mice (high fat/high sucrose diet + streptozotocin), diet with 1000 μg elemental Cr/kg diet for 4 weeks, fasted",8.17 ± 1.8 mM
same,fasting blood glucose compared to the level in the control group,"diabetic mice, dietary Cr for 4 weeks",reduction in fasting blood glucose
